Test results: patent US11427548B2 (Arvinas Operations, Inc., priority 2015, dated 2022)
Like-named read-outs stand apart in the source and are kept apart here.

Biological target: T1, Androgen Receptor (Homo sapiens, UniProt P10275)
T1 construct: endogenous in cells; host or cells: VCaP cells
T1 sequence (P10275 1-920): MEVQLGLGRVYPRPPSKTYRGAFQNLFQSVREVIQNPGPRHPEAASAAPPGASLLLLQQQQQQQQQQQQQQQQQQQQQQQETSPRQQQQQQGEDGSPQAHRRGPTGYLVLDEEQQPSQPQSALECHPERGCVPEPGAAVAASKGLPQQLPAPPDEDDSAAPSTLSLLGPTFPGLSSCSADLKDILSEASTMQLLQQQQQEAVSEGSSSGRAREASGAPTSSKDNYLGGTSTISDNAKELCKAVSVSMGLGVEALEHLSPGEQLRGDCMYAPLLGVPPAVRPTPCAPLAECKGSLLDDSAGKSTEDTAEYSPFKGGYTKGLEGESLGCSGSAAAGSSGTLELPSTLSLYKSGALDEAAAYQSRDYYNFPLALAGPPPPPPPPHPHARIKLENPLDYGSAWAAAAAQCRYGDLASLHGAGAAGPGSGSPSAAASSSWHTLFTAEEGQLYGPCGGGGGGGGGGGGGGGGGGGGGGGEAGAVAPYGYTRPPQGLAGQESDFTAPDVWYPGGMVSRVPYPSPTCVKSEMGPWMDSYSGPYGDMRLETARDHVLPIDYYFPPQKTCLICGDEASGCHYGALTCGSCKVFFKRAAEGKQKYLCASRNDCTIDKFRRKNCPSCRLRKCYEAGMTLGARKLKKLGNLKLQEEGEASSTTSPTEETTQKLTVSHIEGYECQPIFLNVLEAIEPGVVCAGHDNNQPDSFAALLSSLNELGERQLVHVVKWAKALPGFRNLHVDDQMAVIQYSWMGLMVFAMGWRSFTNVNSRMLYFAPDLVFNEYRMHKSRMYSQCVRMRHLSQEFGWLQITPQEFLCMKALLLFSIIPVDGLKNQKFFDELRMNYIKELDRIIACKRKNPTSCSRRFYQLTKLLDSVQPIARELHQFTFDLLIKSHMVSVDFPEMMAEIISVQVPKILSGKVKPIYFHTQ
Assay: Androgen Receptor ELISA assay (PathScan AR ELISA) in VCaP cells: AR degradation, Dmax and DC50
Type: cell-based
Procedure: 1. Androgen Receptor ELISA Assay.
The protocols used with VCaP cells are described below. The androgen receptor ELISA assay was performed using PathScan AR ELISA (Cell Signaling Catalog #12850) according to the following assay steps:
VCaP cells are seeded at 30,000 cells/well at a volume of 200 μL/well in VCaP assay medium [Phenol red free RPMI (Gibco Cat #11835-030); 5% Charcoal Stripped (Dextran treated) FBS (Omega Scientific, Cat #FB-04); Pen/Strep Life Technologies (Gibco Cat #: 10378-016); 0.1 nM R1881 (Sigma, Cat #R0908) is added upon the start of the assay, not during initial plating of the cells) in Corning 3904 plates. The cells are grown for a minimum of 3 days.
First, cells are dosed with compounds diluted in 0.1% DMSO—use a polypropylene plate according to the following protocol: (1)(i) make 1000× stock plate in DMSO; (ii) 20 mM stock diluted 1/6.7 with DMSO (5 μL+28.3 μL DMSO)=3 mM into row H; (iii) perform serial dilutions in ½ log doses (10 μL of PROTAC+20 μL DMSO) from row H towards row B. Reserve row A for DMSO; (iv) 7 doses total (final concentration in this 1000× plate will be 3 mM, 1 mM, 333 μM, 111 μM, etc). (2)(i) Make 10× stock plate in media; (ii) transfer 2.5 μL of the 1000× stock to a new 10× stock plate (use 12 channel pipet, start at A (DMSO control) work thru H. When 247.5 μL of media is added to this plate, it will serve as a 10× stock; (iii) make media+1 nM R1881 for making 10× stock plate; (iv) add 247.5 μL of media with 1 nM R1881 to each well of the 10× stock plate, mix.
Then 22 μL of 10× stock is added to cells and incubated for 24 h. 1× Cell Signaling Cell lysis buffer is made (Catalogue #9803; comes with the kit)—prepare for 50 μL/well. Keep on ice. Media is aspirated, and 50 μL 1× cell lysis buffer/well is added. The cells are placed on ice for 10 minutes. The solution is mixed and transferred to PCR plate, and centrifuged at 4C for 10 minutes at 4000 rpm.
5 μL is transferred to fresh plate (use immediately or freeze −80 C); 115 μL ELISA Dilutant is added (0.15 ug/ml-0.075 ug/ml; comes with the PathScan ELISA).
Add 100 μL/well AR Elisa; cover and shake, 37 C for 2 hrs; dump, tap, wash 4×200 μL ELISA wash buffer; add 100 μL/well mouse AR detection Ab; cover and shake, 37 C for 1 hr; dump, tap, wash 4×200 μL ELISA wash buffer; add 100 μL/well anti-mouse—HRP conjugated Ab (comes with the kit); cover and shake, 37 C for 30 min; allow TMB reagent to come to room temperature; dump, tap, wash 4×200 μL Elisa wash buffer; tap; add 100 μL TMB, shake 5 min—while watching color. Add the stop reagent when light blue color develops. Add 100 μL Stop solution; shake and read at 450 nm.

[1] = read-out: VCaP DC50; concentration that caused 50% Androgen Receptor degradation, VCaP cells
[2] = VCaP, highest percentage of Androgen Receptor degradation observed, VCaP cells; read-out: VCaP Dmax (%)
[3] = concentration that caused 50% Androgen Receptor degradation, VCaP cells; read-out: VCaP DC50

| Structure (SMILES) | Dmax (VCaP, read-out: VCaP Dmax (%)) | DC50 [1] | Dmax [2] | DC50 [3] |
| --- | --- | --- | --- | --- |
| Cc1ncoc1-c1ccc(CNC(=O)[C@@H]2C[C@@H](O)CN2C(=O)[C@@H](NC(=O)COCCCOCCCCOc2ccc(N3C(=S)N(c4ccc(C#N)c(C(F)(F)F)c4)C(=O)C3(C)C)cc2)C(C)(C)C)cc1 [Example 35, (2S,4R)-1-[(2S)-2-(2-{3-[4-(4-{3-[4-cyano-3-(trifluoromethyl)phenyl]-5,5-dimethyl-4-oxo-2-sulfanylideneimidazolidin-1-yl}phenoxy)butoxy]propoxy}acetamido)-3,3-dimethylbutanoyl]-4-hydroxy-N-{[4-(4-methyl-1,3-oxazol-5-yl)phenyl]methyl}pyrrolidine-2-carboxamide] | 51 to 70% | < 50 nM | – | – |
| CC(C)[C@H](NC(=O)COCCCOCCCCOc1ccc(N2C(=S)N(c3ccc(C#N)c(Cl)c3)C(=O)C2(C)C)cc1)C(=O)N1C[C@H](O)C[C@H]1C(=O)NCc1ccc(-c2cncs2)cc1 [Example 36] | 26 to 50% | < 50 nM | – | – |
| Cc1ncsc1-c1ccc(CNC(=O)[C@@H]2C[C@@H](O)CN2C(=O)[C@@H](NC(=O)COCCCOCCCCOc2ccc(N3C(=S)N(c4cnc(C#N)c(Cl)c4)C(=O)C3(C)C)cc2)C(C)(C)C)cc1 [Example 37, (2S,4R)-1-[(2S)-2-{2-[3-(4-{4-[3-(5-chloro-6-cyanopyridin-3-yl)-5,5-dimethyl-4-oxo-2-sulfanylideneimidazolidin-1-yl]phenoxy}butoxy)propoxy]acetamido}-3,3-dimethylbutanoyl]-4-hydroxy-N-{[4-(4-methyl-1,3-thiazol-5-yl)phenyl]methyl}pyrrolidine-2-carboxamide] | – | – | > 71% | < 50 nM |
| Cc1ncoc1-c1ccc(CNC(=O)[C@@H]2C[C@@H](O)CN2C(=O)[C@@H](NC(=O)COCCCOCCCCOc2ccc(N3C(=S)N(c4ccc(C#N)c(Cl)c4)C(=O)C3(C)C)cc2)C(C)(C)C)cc1 [Example 38, (2S,4R)-1-[(2S)-2-{2-[3-(4-{4-[3-(3-chloro-4-cyanophenyl)-5,5-dimethyl-4-oxo-2-sulfanylideneimidazolidin-1-yl]phenoxy}butoxy)propoxy]acetamido}-3,3-dimethylbutanoyl]-4-hydroxy-N-{[4-(4-methyl-1,3-oxazol-5-yl)phenyl]methyl}pyrrolidine-2-carboxamide] | 51 to 70% | < 50 nM | – | – |
| Cc1ncoc1-c1ccc(CNC(=O)[C@@H]2C[C@@H](O)CN2C(=O)[C@@H](NC(=O)COCCCOCCCCOc2ccc(N3C(=S)N(c4ccc(C#N)c(Cl)c4)C(=O)C3(C)C)cc2)C(C)C)cc1 [Example 39] | 26 to 50% | < 50 nM | – | – |
| Cc1ncsc1-c1ccc(CNC(=O)[C@@H]2C[C@@H](O)CN2C(=O)[C@@H](NC(=O)COCCCOCCCCOc2ccc(N3C(=S)N(c4ccc(C#N)c(C(F)(F)F)c4)C(=O)C3(C)C)cn2)C(C)(C)C)cc1 [Example 40, (2S,4R)-1-[(2S)-2-[2-(3-{4-[(5-{3-[4-cyano-3-(trifluoromethyl)phenyl]-5,5-dimethyl-4-oxo-2-sulfanylideneimidazolidin-1-yl}pyridin-2-yl)oxy]butoxy}propoxy)acetamido]-3,3-dimethylbutanoyl]-4-hydroxy-N-{[4-(4-methyl-1,3-thiazol-5-yl)phenyl]methyl}pyrrolidine-2-carboxamide] | 51 to 70% | < 50 nM | – | – |
| Cc1ncsc1-c1ccc(CNC(=O)[C@@H]2C[C@@H](O)CN2C(=O)[C@@H](NC(=O)COCCCOCCCCOc2ccc(N3C(=S)N(c4ccc(C#N)c(Cl)c4)C(=O)C3(C)C)cc2F)C(C)(C)C)cc1 [Example 41, (2S,4R)-1-[(2S)-2-{2-[3-(4-{4-[3-(3-chloro-4-cyanophenyl)-5,5-dimethyl-4-oxo-2-sulfanylideneimidazolidin-1-yl]-2-fluorophenoxy}butoxy)propoxy]acetamido}-3,3-dimethylbutanoyl]-4-hydroxy-N-{[4-(4-methyl-1,3-thiazol-5-yl)phenyl]methyl}pyrrolidine-2-carboxamide] | > 71% | < 50 nM | – | – |
| COc1cc(N2C(=O)C(C)(C)N(c3ccc(OCCCCOCCCOCC(=O)N[C@H](C(=O)N4C[C@H](O)C[C@H]4C(=O)NCc4ccc(-c5scnc5C)cc4)C(C)(C)C)c(F)c3)C2=S)ccc1C#N [Example 42, (2S,4R)-1-[(2S)-2-{2-[3-(4-{4-[3-(4-cyano-3-methoxyphenyl)-5,5-dimethyl-4-oxo-2-sulfanylideneimidazolidin-1-yl]-2-fluorophenoxy}butoxy)propoxy]acetamido}-3,3-dimethylbutanoyl]-4-hydroxy-N-{[4-(4-methyl-1,3-thiazol-5-yl)phenyl]methyl}pyrrolidine-2-carboxamide] | – | – | 51 to 70% | < 50 nM |
| Cc1ncsc1-c1ccc(CNC(=O)[C@@H]2C[C@@H](O)CN2C(=O)[C@@H](NC(=O)COCCCOCCCCOc2ccc(N3C(=S)N(c4ccc(C#N)c(C(F)(F)F)c4)C(=O)C34CCOCC4)cc2)C(C)(C)C)cc1 [Example 43, (2S,4R)-1-[(2S)-2-(2-{3-[4-(4-{3-[4-cyano-3-(trifluoromethyl)phenyl]-4-oxo-2-sulfanylidene-8-oxa-1,3-diazaspiro[4.5]decan-1-yl}phenoxy)butoxy]propoxy}acetamido)-3,3-dimethylbutanoyl]-4-hydroxy-N-{[4-(4-methyl-1,3-thiazol-5-yl)phenyl]methyl}pyrrolidine-2-carboxamide] | 51 to 70% | < 50 nM | – | – |
| Cc1ncoc1-c1ccc(CNC(=O)[C@@H]2C[C@@H](O)CN2C(=O)[C@@H](NC(=O)COCCCOCCCCOc2ccc(N3C(=S)N(c4ccc(C#N)c(Cl)c4)C(=O)C3(C)C)cc2F)C(C)(C)C)cc1 [Example 44, (2S,4R)-1-[(2S)-2-{2-[3-(4-{4-[3-(3-chloro-4-cyanophenyl)-5,5-dimethyl-4-oxo-2-sulfanylideneimidazolidin-1-yl]-2-fluorophenoxy}butoxy)propoxy]acetamido}-3,3-dimethylbutanoyl]-4-hydroxy-N-{[4-(4-methyl-1,3-oxazol-5-yl)phenyl]methyl}pyrrolidine-2-carboxamide] | > 71% | < 50 nM | – | – |
| CC(C)(C)[C@H](NC(=O)COCCCOCCCCOc1ccc(N2C(=S)N(c3ccc(C#N)c(Cl)c3)C(=O)C2(C)C)cc1F)C(=O)N1C[C@H](O)C[C@H]1C(=O)NCc1ccc(-c2cnco2)cc1 [Example 45, (2S,4R)-1-[(2S)-2-{2-[3-(4-{4-[3-(3-chloro-4-cyanophenyl)-5,5-dimethyl-4-oxo-2-sulfanylideneimidazolidin-1-yl]-2-fluorophenoxy}butoxy)propoxy]acetamido}-3,3-dimethylbutanoyl]-4-hydroxy-N-{[4-(1,3-oxazol-5-yl)phenyl]methyl}pyrrolidine-2-carboxamide] | > 71% | < 50 nM | – | – |
